We go through one compound from patent US20260041649A1, “ANTI-INFLAMMATORY AGENT” (WATANABE OYSTER LABORATORY, CO., LTD., priority 2023, published 2026).

For the test, the system named is mouse macrophage RAW264.7 cells. Nature of the test: Western blotting of proteins related to proliferation. The format is cell-based. The conditions noted are these: DHMBA 10 μM, 3 days. As to the method: RAW264.7 cells (1×10^6 cells/10 ml of medium in 100 mm dish) were cultured for 3 days in a DMEM culture medium containing 10% FBS, 1% P/S, and 1% fungizone in the control group (1% ethanol; 0 μM DHMBA as final concentration) and the DHMBA treated group (10 μM). After the culture, cells were removed from the dish using a cell scraper in a cell lysis buffer containing protease inhibitors. Forty micrograms of supernatant protein per lane were separated by electrophoresis on a 12% SDS-PAGE gel, transferred onto a […], and probed by Western blotting with antibodies against various proteins. […] In FIG. 3(B), band intensities are shown as fold increase over the control. Data are presented as the mean±SD of values obtained from 4 dishes using different cell preparations. *: Significant difference (p<0.001) between the control group and the DHMBA-treated group. Statistical analysis was performed using 1-way ANOVA with Tukey-Kramer post-test.
RAW264.7 cells (1×10^6 cells/10 ml of 100 mm dish) were cultured for 3 days in 10% FBS, 1% P/S (1% ethanol), or in the DHMBA-treated group (10 μM). After the culture, the dishes were washed with cold PBS (10 ml) to remove floating and dead cells. The cell lysis buffer (Cell Signaling Technology, Inc., Danvers, MA, USA) supplemented with protease/protein phosphatase inhibitor (Roche Diagnostics, Indianapolis, IN, USA) was added to the cells to collect cell lysates of the adherent cells as described in the previous study. The cell lysates were centrifuged at 17,000×g, 4° C. for 10 min. Protein concentrations in the supernatants were measured using Bio-Rad Protein Assay Dye (Bio-Rad Laboratories, Inc., Hercules, CA, USA) with bovine serum albumin as a standard. The cell lysates were stored at −80° C. until use. The supernatant proteins (40 μg/lane) were separated by SDS-polyacrylamide gel electrophoresis (12% SDS-PAGE) and transferred to a PVDF membrane. The transferred membranes were immunoblotted with specific antibodies against various proteins, including Ras (cat. no. 3339, rabbit), Akt (cat. no. 9272, rabbit), mitogen-activated protein kinase (MAPK; cat. no. 4695, rabbit), phosphorylated MAPK (cat. no. 4370, rabbit), mechanistic target of rapamycin (mTOR; cat. no. 4517, mouse), Rb (cat. no. 9309, mouse), p21 (cat. no. 2947, rabbit), STAT3 (cat. no. 12640, rabbit), COX-1 (cat. no. 48415), COX-2 (cat. no. 4842), and β-actin (cat. no. 3700, mouse), all of which were purchased from Cell Signaling Technology, Inc. (Danvers, MA, USA). Specific antibodies for p53 (cat. no. sc-126, mouse) and NF-κB p65 (cat. no. sc-109, rabbit) were purchased from Santa Cruz Biotechnology Inc. (Santa Cruz, CA, USA). Additionally, rabbit anti-regucalcin antibody (cat. no. HPA029103, rabbit) was obtained from Sigma-Aldrich. Target proteins were incubated overnight at 4° C. with one of the above primary antibodies (1:1,000). After incubation, the membranes were further incubated with horseradish peroxidase-conjugated secondary antibodies (Santa Cruz Biotechnology Inc., cat. no. sc-2005 (mouse) or sc-2305 (rabbit); dilution 1:2000) for 60 min at room temperature, and protein bands were detected using chemiluminescence substrates (cat. no. 34577, Thermo Fisher Scientific Inc., Rockford, IL, USA) on X-ray films. From 4 independent experiments, a total of 3 or 4 films with separate membranes were scanned with Epson Perfection 1660 Photo scanner to quantify the bands using Image J2 software (National Institutes of Health, Bethesda, MD, USA). In addition, for immunoblotting using additional antibodies, the membranes were incubated at room temperature for 30 min with Restore (registered trademark) Western Blot Stripping Buffer (cat. no. 21059; Thermo Fisher Scientific Inc., Rockford, IL, USA) to remove attached chemiluminescence substrates (Thermo Fisher Scientific Inc.,) and were used to measure other protein molecules.
(In general: A western blot detects proteins with antibodies after separation by electrophoresis.)

Consider `COc1c(O)cc(CO)cc1O` [DHMBA, 3,5-dihydroxy-4-methoxybenzyl alcohol], for which the “expression level of Rb” value is “increased”, the “expression level of p21” value is on record as “increased”, the “expression level of p53” value is “increased” and the “expression level of regucalcin” value was “increased”. The “level of Akt” value was “decreased”, the “level of MAPK” value is on record as “decreased”, the “level of PI3 kinase” value is on record as “decreased” and the “level of Ras” value is listed as “decreased”. The “level of mTOR” value is “decreased” and the “level of phospho-MAPK” value is given as “decreased”.
